Data on 13 molecules can be found in PMC11094793, “Discovery of LLC0424 as a Potent and Selective in Vivo NSD2 PROTAC Degrader” (Journal of Medicinal Chemistry, 2024).

Read-outs that look alike come from different tables or passages of the source.

The test concerns the target T1, NSD2 (Homo sapiens, UniProt O96028).
T1 sequence (O96028 1-1365): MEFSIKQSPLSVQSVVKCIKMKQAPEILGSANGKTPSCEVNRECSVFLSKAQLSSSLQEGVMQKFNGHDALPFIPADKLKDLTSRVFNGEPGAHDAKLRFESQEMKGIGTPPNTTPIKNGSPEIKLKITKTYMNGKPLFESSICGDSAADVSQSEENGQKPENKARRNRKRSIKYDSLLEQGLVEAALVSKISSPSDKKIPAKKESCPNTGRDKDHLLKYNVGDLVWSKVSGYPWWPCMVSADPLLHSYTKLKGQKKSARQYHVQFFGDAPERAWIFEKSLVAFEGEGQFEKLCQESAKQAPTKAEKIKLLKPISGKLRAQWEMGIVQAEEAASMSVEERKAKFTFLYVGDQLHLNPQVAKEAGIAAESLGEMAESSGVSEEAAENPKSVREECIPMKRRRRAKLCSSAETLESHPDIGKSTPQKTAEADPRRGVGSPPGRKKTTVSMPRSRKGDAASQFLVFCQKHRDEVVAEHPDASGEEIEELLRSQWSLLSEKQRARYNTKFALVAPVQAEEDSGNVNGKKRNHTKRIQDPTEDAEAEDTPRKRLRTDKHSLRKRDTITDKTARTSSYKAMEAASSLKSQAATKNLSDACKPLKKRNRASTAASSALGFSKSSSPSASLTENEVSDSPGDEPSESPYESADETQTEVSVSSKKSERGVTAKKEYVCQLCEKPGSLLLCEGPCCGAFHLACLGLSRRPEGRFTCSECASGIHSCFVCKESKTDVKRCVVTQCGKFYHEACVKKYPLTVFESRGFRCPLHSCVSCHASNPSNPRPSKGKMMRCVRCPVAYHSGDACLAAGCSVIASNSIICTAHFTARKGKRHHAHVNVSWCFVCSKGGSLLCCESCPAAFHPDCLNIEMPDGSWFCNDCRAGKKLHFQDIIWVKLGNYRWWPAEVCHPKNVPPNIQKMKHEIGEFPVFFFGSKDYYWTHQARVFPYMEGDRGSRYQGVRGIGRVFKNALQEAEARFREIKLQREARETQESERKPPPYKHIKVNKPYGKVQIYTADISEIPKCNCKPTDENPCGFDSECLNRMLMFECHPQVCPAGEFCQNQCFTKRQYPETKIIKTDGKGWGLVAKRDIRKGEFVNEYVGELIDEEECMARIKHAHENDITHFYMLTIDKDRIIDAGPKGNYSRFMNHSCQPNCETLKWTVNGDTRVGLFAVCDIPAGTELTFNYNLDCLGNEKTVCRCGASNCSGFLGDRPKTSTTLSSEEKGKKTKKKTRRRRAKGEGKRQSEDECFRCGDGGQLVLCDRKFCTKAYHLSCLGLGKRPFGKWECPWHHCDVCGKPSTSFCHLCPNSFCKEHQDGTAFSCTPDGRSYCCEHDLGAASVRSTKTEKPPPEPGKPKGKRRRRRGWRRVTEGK
The test is described as follows: Compound screening: NSD2 degradation by immunoblotting in VCaP cells. As to conditions: VCaP, 24 h.

Where [1] appears, read: read-out: 2.0 μM Degradation % (VCaP).

Description: After treatment, the cultured cells were collected and rinsed with phosphate-buffered saline (PBS) in room temperature. The cells were treated with RIPA buffers (ThermoFisher Scientific) supplemented with Halt Protease and Phosphatase Inhibitor Cocktail (ThermoFisher Scientific). After sonication and centrifugation, the total amount of protein in the cell lysates was measured by Pierce Bovine Serum Albumin Standard Pre-Diluted Set (ThermoFisher Scientific). […] After incubated with HRP-conjugated secondary antibodies, the membranes were developed with ECL Prime Western Blotting Detection Reagent (cytiva) and imaged on Odyssey Fc Imager (LiCOR Biosciences).
Western blot was then performed as previously described to detect NSD2 degradation.

As for `O=C1CCC(N2C(=O)c3cccc(NCCCCCCNC(=O)c4ccc(NC(=O)c5ccc(CN(C(=O)c6ccc7c(c6)OCC(=O)N7)C6CC6)cc5)cc4)c3C2=O)C(=O)N1` (centres unmarked) [10c, N-Cyclopropyl-N-(4-((4-((6-((2-(2,6-dioxopiperidin-3-yl)-1,3-dioxoisoindolin-4-yl)amino)hexyl)carbamoyl)phenyl)carbamoyl)benzyl)-3-oxo-3,4-dihydro-2H-benzo[b][1,4]oxazine-7-carboxamide], the Dmax at 2 µM under setting [1] was determined as 25% and the Dmax at 2 µM (read-out: % Degradation) is 25%.

Turning to `O=C1CCC(N2C(=O)c3cccc(NCCCCCCCCNC(=O)c4ccc(NC(=O)c5ccc(CN(C(=O)c6ccc7c(c6)OCC(=O)N7)C6CC6)cc5)cc4)c3C2=O)C(=O)N1` (centres unmarked) [10d, N-Cyclopropyl-N-(4-((4-((8-((2-(2,6-dioxopiperidin-3-yl)-1,3-dioxoisoindolin-4-yl)amino)octyl)carbamoyl)phenyl)carbamoyl)benzyl)-3-oxo-3,4-dihydro-2H-benzo[b][1,4]oxazine-7-carboxamide], the Dmax at 2 µM under setting [1] worked out at 13% and the Dmax at 2 µM (read-out: % Degradation) came to 13%.

In the case of `O=C1CCC(N2C(=O)c3ccc(NCCNC(=O)c4ccc(NC(=O)c5ccc(CN(C(=O)c6ccc7c(c6)OCC(=O)N7)C6CC6)cc5)cc4)cc3C2=O)C(=O)N1` (centres unmarked) [10e, N-cyclopropyl-N-(4-((4-((2-((2-(2,6-dioxopiperidin-3-yl)-1,3-dioxoisoindolin-5-yl)amino)ethyl)carbamoyl)phenyl)carbamoyl)benzyl)-3-oxo-3,4-dihydro-2H-benzo[b][1,4]oxazine-7-carboxamide], the Dmax at 2 µM worked out at 70% under setting [1] and 70% (read-out: % Degradation).

Consider `O=C1CCC(N2C(=O)c3ccc(NCCCCNC(=O)c4ccc(NC(=O)c5ccc(CN(C(=O)c6ccc7c(c6)OCC(=O)N7)C6CC6)cc5)cc4)cc3C2=O)C(=O)N1` (centres unmarked) [10g, N-Cyclopropyl-N-(4-((4-((4-((2-(2,6-dioxopiperidin-3-yl)-1,3-dioxoisoindolin-5-yl)amino)butyl)carbamoyl)phenyl)carbamoyl)benzyl)-3-oxo-3,4-dihydro-2H-benzo[b][1,4]oxazine-7-carboxamide], for which the Dmax at 2 µM by setting is: under setting [1], 92%; (read-out: % Degradation) 92%.

As to `O=C1CCC(N2C(=O)c3ccc(NCCCCCNC(=O)c4ccc(NC(=O)c5ccc(CN(C(=O)c6ccc7c(c6)OCC(=O)N7)C6CC6)cc5)cc4)cc3C2=O)C(=O)N1` (centres unmarked) [10h, N-Cyclopropyl-N-(4-((4-((5-((2-(2,6-dioxopiperidin-3-yl)-1,3-dioxoisoindolin-5-yl)amino)pentyl)carbamoyl)phenyl)carbamoyl)benzyl)-3-oxo-3,4-dihydro-2H-benzo[b][1,4]oxazine-7-carboxamide], the Dmax at 2 µM under setting [1] was determined as 80% and the Dmax at 2 µM (read-out: % Degradation) is 80%.

For the molecule `O=C1CCC(N2C(=O)c3ccc(NCCCCCCNC(=O)c4ccc(NC(=O)c5ccc(CN(C(=O)c6ccc7c(c6)OCC(=O)N7)C6CC6)cc5)cc4)cc3C2=O)C(=O)N1` (centres unmarked) [10i, N-Cyclopropyl-N-(4-((4-((6-((2-(2,6-dioxopiperidin-3-yl)-1,3-dioxoisoindolin-5-yl)amino)hexyl)carbamoyl)phenyl)carbamoyl)benzyl)-3-oxo-3,4-dihydro-2H-benzo[b][1,4]oxazine-7-carboxamide], the Dmax at 2 µM under setting [1] came out at 83% and the Dmax at 2 µM (read-out: % Degradation) stood at 83%.

In the case of `O=C1CCC(N2C(=O)c3ccc(NCCCCCCCCNC(=O)c4ccc(NC(=O)c5ccc(CN(C(=O)c6ccc7c(c6)OCC(=O)N7)C6CC6)cc5)cc4)cc3C2=O)C(=O)N1` (centres unmarked) [10j, N-Cyclopropyl-N-(4-((4-((8-((2-(2,6-dioxopiperidin-3-yl)-1,3-dioxoisoindolin-5-yl)amino)octyl)carbamoyl)phenyl)carbamoyl)benzyl)-3-oxo-3,4-dihydro-2H-benzo[b][1,4]oxazine-7-carboxamide], the Dmax at 2 µM was 90% under setting [1] and 90% (read-out: % Degradation).

With `O=C1CCC(N2C(=O)c3ccc(N4CCN(C(=O)c5ccc(NC(=O)c6ccc(CN(C(=O)c7ccc8c(c7)OCC(=O)N8)C7CC7)cc6)cc5)CC4)cc3C2=O)C(=O)N1` (centres unmarked) [10m, N-Cyclopropyl-N-(4-((4-(4-(2-(2,6-dioxopiperidin-3-yl)-1,3-dioxoisoindolin-5-yl)piperazine-1-carbonyl)phenyl)carbamoyl)benzyl)-3-oxo-3,4-dihydro-2H-benzo[b][1,4]oxazine-7-carboxamide], the Dmax at 2 µM was found to be 41% under setting [1] and 41% (read-out: % Degradation).

Turning to `O=C1CCC(N2C(=O)c3ccc(N4CCC(CNC(=O)c5ccc(NC(=O)c6ccc(CN(C(=O)c7ccc8c(c7)OCC(=O)N8)C7CC7)cc6)cc5)CC4)cc3C2=O)C(=O)N1` (centres unmarked) [10n, N-Cyclopropyl-N-(4-((4-(((1-(2-(2,6-dioxopiperidin-3-yl)-1,3-dioxoisoindolin-5-yl)piperidin-4-yl)methyl)carbamoyl)phenyl)carbamoyl)benzyl)-3-oxo-3,4-dihydro-2H-benzo[b][1,4]oxazine-7-carboxamide], the Dmax at 2 µM by setting is: under setting [1], 74%; (read-out: % Degradation) 74%.

Take `CN(C(=O)c1ccc(NC(=O)c2ccc(CN(C(=O)c3ccc4c(c3)OCC(=O)N4)C3CC3)cc2)cc1)C1CCN(c2ccc3c(c2)C(=O)N(C2CCC(=O)NC2=O)C3=O)CC1` (centres unmarked) [10o, N-Cyclopropyl-N-(4-((4-((1-(2-(2,6-dioxopiperidin-3-yl)-1,3-dioxoisoindolin-5-yl)piperidin-4-yl)(methyl)carbamoyl)phenyl)carbamoyl)benzyl)-3-oxo-3,4-dihydro-2H-benzo[b][1,4]oxazine-7-carboxamide]: the Dmax at 2 µM runs as follows: under setting [1], 89%; (read-out: % Degradation) 89%.

Turning to `CC1(NC(=O)c2ccc(NC(=O)c3ccc(CN(C(=O)c4ccc5c(c4)OCC(=O)N5)C4CC4)cc3)cc2)CCN(c2ccc3c(c2)C(=O)N(C2CCC(=O)NC2=O)C3=O)CC1` (centres unmarked) [10p, N-Cyclopropyl-N-(4-((4-((1-(2-(2,6-dioxopiperidin-3-yl)-1,3-dioxoisoindolin-5-yl)-4-methylpiperidin-4-yl)carbamoyl)phenyl)carbamoyl)benzyl)-3-oxo-3,4-dihydro-2H-benzo[b][1,4]oxazine-7-carboxamide], the Dmax at 2 µM stood at 30% under setting [1] and 30% (read-out: % Degradation).

As for `O=C1CCC(N2C(=O)c3ccc(N4CCCC(NC(=O)c5ccc(NC(=O)c6ccc(CN(C(=O)c7ccc8c(c7)OCC(=O)N8)C7CC7)cc6)cc5)C4)cc3C2=O)C(=O)N1` (centres unmarked) [10q, N-Cyclopropyl-N-(4-((4-((1-(2-(2,6-dioxopiperidin-3-yl)-1,3-dioxoisoindolin-5-yl)piperidin-3-yl)carbamoyl)phenyl)carbamoyl)benzyl)-3-oxo-3,4-dihydro-2H-benzo[b][1,4]oxazine-7-carboxamide], the Dmax at 2 µM by setting is: under setting [1], 3%; (read-out: % Degradation) 3%.

With `O=C1CCC(N2C(=O)c3cccc(NCCNC(=O)c4ccc(NC(=O)c5ccc(CN(C(=O)c6ccc7c(c6)OCC(=O)N7)C6CC6)cc5)cc4)c3C2=O)C(=O)N1` (centres unmarked) [compound 10a, N-Cyclopropyl-N-(4-((4-((2-((2-(2,6-dioxopiperidin-3-yl)-1,3-dioxoisoindolin-4-yl)amino)ethyl)carbamoyl)phenyl)carbamoyl)benzyl)-3-oxo-3,4-dihydro-2H-benzo[b][1,4]oxazine-7-carboxamide], the Dmax at 2 µM amounted to 17% under setting [1] and 17% (read-out: % Degradation).
